Values of other authors in patent publication US20130280259A1, “USE OF ANTIBODIES AGAINST NK1, NK2 AND/OR NK3 RECEPTORS IN CANCER TREATMENT” (SERVICIO ANDALUZ DE SALUD, priority 2010, published 2013).

System: advanced pancreatic cancer, advanced gastric cancer, glioblastoma, breast cancer
Conditions: breast cancer after first-line chemotherapy (Procc ASCO 1999-2002); cited from earlier work

## CNC(=O)[C@@H](NC(=O)[C@H](CC(C)C)[C@H](O)C(=O)NO)C(C)(C)C [Marimastat]
  Efficacy for the treatment of cancer: effective
